In PubChem BioAssay AID2060905 (Molecular Pharmacology Branch, DTP, NCI, 2025):

Tested on: 282377-053-R-J1-PDC complex spheroid viability
Assay: Anticancer human tumor 282377-053-R-J1-PDC patient-derived colon adenocarcinoma cell line growth inhibition [RAS]
Details: for IC50: curve of first compound; for viability, T/C: stronger effect = lower value
How it was run: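 Multi-cell-type spheroids: tumor cells plus HUVEC endothelial cells and mesenchymal stem cells. RAS-pathway inhibitors were combined with targeted agents, each dosed in half-log steps down from clinical Cmax, or from 10 microM when Cmax was unknown.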
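Also: spheroids exposed to agents for seven days before readout.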
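For viability, T/C in this document: luminescence viability as percent of DMSO vehicle control wells.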

## CCN1CCN(Cc2ccc(Nc3ncc(F)c(-c4cc(F)c5nc(C)n(C(C)C)c5c4)n3)nc2)CC1 + C#Cc1c(F)ccc2cc(O)cc(-c3ncc4c(N5CC6CCC(C5)N6)nc(OCC56CCCN5CC(F)C6)nc4c3F)c12
Second compound 0.0316 µM
  IC50: > 1000 nM
Second compound 0.1 µM
  IC50: > 1000 nM
Second compound 0.316 µM
  IC50: > 1000 nM
Second compound 1 µM
  IC50: > 1000 nM
Second compound 3.16 µM
  IC50: > 1000 nM
Second compound 10 µM
  IC50: > 1000 nM
Second compound 0.0316 µM, first compound 0.00316 µM
  viability, T/C: 101%
Second compound 0.0316 µM, first compound 0.01 µM
  viability, T/C: 101%
Second compound 0.0316 µM, first compound 0.0316 µM
  viability, T/C: 112%
Second compound 0.0316 µM, first compound 0.1 µM
  viability, T/C: 119%
Second compound 0.0316 µM, first compound 0.316 µM
  viability, T/C: 127%
Second compound 0.0316 µM, first compound 1 µM
  viability, T/C: 127%
Second compound 0.1 µM, first compound 0.00316 µM
  viability, T/C: 125%
Second compound 0.1 µM, first compound 0.01 µM
  viability, T/C: 95.5%
Second compound 0.1 µM, first compound 0.0316 µM
  viability, T/C: 107%
Second compound 0.1 µM, first compound 0.1 µM
  viability, T/C: 106%
Second compound 0.1 µM, first compound 0.316 µM
  viability, T/C: 135%
Second compound 0.1 µM, first compound 1 µM
  viability, T/C: 126%
Second compound 0.316 µM, first compound 0.00316 µM
  viability, T/C: 105%
Second compound 0.316 µM, first compound 0.01 µM
  viability, T/C: 108%
Second compound 0.316 µM, first compound 0.0316 µM
  viability, T/C: 109%
Second compound 0.316 µM, first compound 0.1 µM
  viability, T/C: 121%
Second compound 0.316 µM, first compound 0.316 µM
  viability, T/C: 117%
Second compound 0.316 µM, first compound 1 µM
  viability, T/C: 129%
Second compound 1 µM, first compound 0.00316 µM
  viability, T/C: 97.3%
Second compound 1 µM, first compound 0.01 µM
  viability, T/C: 100%
Second compound 1 µM, first compound 0.0316 µM
  viability, T/C: 96.7%
Second compound 1 µM, first compound 0.1 µM
  viability, T/C: 103%
Second compound 1 µM, first compound 0.316 µM
  viability, T/C: 119%
Second compound 1 µM, first compound 1 µM
  viability, T/C: 132%
Second compound 3.16 µM, first compound 0.00316 µM
  viability, T/C: 107%
Second compound 3.16 µM, first compound 0.01 µM
  viability, T/C: 112%
Second compound 3.16 µM, first compound 0.0316 µM
  viability, T/C: 103%
Second compound 3.16 µM, first compound 0.1 µM
  viability, T/C: 118%
Second compound 3.16 µM, first compound 0.316 µM
  viability, T/C: 134%
Second compound 3.16 µM, first compound 1 µM
  viability, T/C: 131%
Second compound 10 µM, first compound 0.00316 µM
  viability, T/C: 90.2%
Second compound 10 µM, first compound 0.01 µM
  viability, T/C: 90.1%
Second compound 10 µM, first compound 0.0316 µM
  viability, T/C: 101%
Second compound 10 µM, first compound 0.1 µM
  viability, T/C: 111%
Second compound 10 µM, first compound 0.316 µM
  viability, T/C: 104%
Second compound 10 µM, first compound 1 µM
  viability, T/C: 120%

## C=CC(=O)N1CCN(c2nc(OCC3CCCN3C)nc3c(F)c(-c4nc(N)cc(C)c4C(F)(F)F)c(Cl)cc23)C(C)C1 (centres undefined) + CCn1c(-c2cccnc2C(C)OC)c2c3cc(ccc31)N1CCOC(CC(NC(=O)C(C(C)C)N(C)C(=O)C3(F)CCN(C(=O)C#CC(C)(C)N(C)C)CC3)C(=O)N3CCCC(N3)C(=O)OCC(C)(C)C2)C1
Second compound 0.000949 µM
  IC50: > 1000 nM
Second compound 0.003 µM
  IC50: > 1000 nM
Second compound 0.00949 µM
  IC50: > 1000 nM
Second compound 0.03 µM
  IC50: > 1000 nM
Second compound 0.0949 µM
  IC50: > 1000 nM
Second compound 0.3 µM
  IC50: > 1000 nM
Second compound 0.000949 µM, first compound 0.00316 µM
  viability, T/C: 90.6%
Second compound 0.000949 µM, first compound 0.01 µM
  viability, T/C: 110%
Second compound 0.000949 µM, first compound 0.0316 µM
  viability, T/C: 109%
Second compound 0.000949 µM, first compound 0.1 µM
  viability, T/C: 92.1%
Second compound 0.000949 µM, first compound 0.316 µM
  viability, T/C: 98%
Second compound 0.000949 µM, first compound 1 µM
  viability, T/C: 87.1%
Second compound 0.003 µM, first compound 0.00316 µM
  viability, T/C: 105%
Second compound 0.003 µM, first compound 0.01 µM
  viability, T/C: 131%
Second compound 0.003 µM, first compound 0.0316 µM
  viability, T/C: 86.9%
Second compound 0.003 µM, first compound 0.1 µM
  viability, T/C: 101%
Second compound 0.003 µM, first compound 0.316 µM
  viability, T/C: 81.2%
Second compound 0.003 µM, first compound 1 µM
  viability, T/C: 85.3%
Second compound 0.00949 µM, first compound 0.00316 µM
  viability, T/C: 96.2%
Second compound 0.00949 µM, first compound 0.01 µM
  viability, T/C: 92.7%
Second compound 0.00949 µM, first compound 0.0316 µM
  viability, T/C: 83.6%
Second compound 0.00949 µM, first compound 0.1 µM
  viability, T/C: 88.7%
Second compound 0.00949 µM, first compound 0.316 µM
  viability, T/C: 81.5%
Second compound 0.00949 µM, first compound 1 µM
  viability, T/C: 82.8%
Second compound 0.03 µM, first compound 0.00316 µM
  viability, T/C: 92.9%
Second compound 0.03 µM, first compound 0.01 µM
  viability, T/C: 97.5%
Second compound 0.03 µM, first compound 0.0316 µM
  viability, T/C: 86.2%
Second compound 0.03 µM, first compound 0.1 µM
  viability, T/C: 112%
Second compound 0.03 µM, first compound 0.316 µM
  viability, T/C: 89.9%
Second compound 0.03 µM, first compound 1 µM
  viability, T/C: 93.8%
Second compound 0.0949 µM, first compound 0.00316 µM
  viability, T/C: 90.5%
Second compound 0.0949 µM, first compound 0.01 µM
  viability, T/C: 104%
Second compound 0.0949 µM, first compound 0.0316 µM
  viability, T/C: 115%
Second compound 0.0949 µM, first compound 0.1 µM
  viability, T/C: 109%
Second compound 0.0949 µM, first compound 0.316 µM
  viability, T/C: 109%
Second compound 0.0949 µM, first compound 1 µM
  viability, T/C: 96.3%
Second compound 0.3 µM, first compound 0.00316 µM
  viability, T/C: 90.1%
Second compound 0.3 µM, first compound 0.01 µM
  viability, T/C: 92.1%
Second compound 0.3 µM, first compound 0.0316 µM
  viability, T/C: 97.5%
Second compound 0.3 µM, first compound 0.1 µM
  viability, T/C: 93.3%
Second compound 0.3 µM, first compound 0.316 µM
  viability, T/C: 113%
Second compound 0.3 µM, first compound 1 µM
  viability, T/C: 98.2%
